This is an account of results in patent US6057371A, “Sigma receptor ligands and the use thereof” (Virginia Commonwealth University, priority 1992, dated 2000).

SMILES strings stand for the structures. Where a name gives a salt, the structure may show the parent alone. Read-outs that look alike come from different tables or passages of the source.

One test deals with T1, 5-HT1A receptor (Rattus norvegicus, UniProt P19327).
T1 sequence (P19327 1-422): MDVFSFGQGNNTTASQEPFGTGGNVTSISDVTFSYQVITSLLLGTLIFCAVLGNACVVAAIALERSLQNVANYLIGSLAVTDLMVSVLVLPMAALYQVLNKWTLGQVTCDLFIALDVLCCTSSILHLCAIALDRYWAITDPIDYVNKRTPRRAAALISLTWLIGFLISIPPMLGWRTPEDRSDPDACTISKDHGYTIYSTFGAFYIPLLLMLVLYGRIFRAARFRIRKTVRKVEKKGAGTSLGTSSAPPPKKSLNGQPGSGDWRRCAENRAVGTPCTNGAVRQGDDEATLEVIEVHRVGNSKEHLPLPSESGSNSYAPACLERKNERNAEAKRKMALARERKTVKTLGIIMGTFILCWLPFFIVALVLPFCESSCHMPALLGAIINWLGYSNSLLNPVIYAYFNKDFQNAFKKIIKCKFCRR
Put plainly: biochemical. It counts as binding. Details: 47: 529-540 (1986); from tissue; host or cells: brain tissue, inferred from the cited method (rat frontal cortex). On the procedure: (§1) Further sigma receptor binding assays against [^3 H]DTG and 5HT-1A binding assays were conducted according to the procedure outlined in the previous examples.

The target of a further test is sigma receptor. Put plainly: Sigma receptor binding, [^3 H]DTG, brain membranes (both sigma-1 and sigma-2 sites). Further details: species or system guinea pig. The settings on record: for IC50: Table 6, [^3 H]DTG; for Ki: running text, Examples 5 and 6, read-out: sigma receptor Ki. As to the method:
Sigma receptor binding assays using guinea pig brain membrane homogenates and the radioligand [^3 H]DTG were conducted as described by Weber et al.. […] Briefly, frozen whole guinea-pig brains (Biotrol, Indianapolis, Ind.) were homogenized in 10 volumes (w/v) of ice-cold 320 mM sucrose using a Brinkman polytron. The homogenate was centrifuged at 1,000× g for 20 minutes at 4° C. The supernatant was centrifuged at 20,000× g for 20 minutes at 4° C. The resulting pellet was resuspended in 10 initial volumes of 50 mM Tris/HCl buffer at pH 7.4 and centrifuged at 20,000× g for 20 minutes at 4° C. The resulting pellet was resuspended in 5 initial volumes ice-cold 50 mM Tris/Hcl […], and the final volume was adjusted to yield a protein concentration of 3 mg/ml. Aliquots of 20-ml were stored at -70° C. until used, with no detectable loss of binding.
The protein concentration in the 1-ml final incubation volume was 800 ug/ml, corresponding to 32 mg of brain tissue (original wet weight) and to a tissue concentration within the linear range for specific binding. […] Incubations were terminated after 90 minutes at room temperature by addition of 4 ml of ice-cold 50 mM Tris/HCl (pH 7.4) and rapid filtration of the membrane suspension through Whatman GF/B glass-fiber filters under vacuum, using a 48-well cell harvester (Brandel). The filters were washed 2 times with 4 ml of 50 mM Tris/HCl (pH 7.4). Each filter was suspended in 10 ml Cytoscint (ICI), and radioactivity was measured by liquid scintillation spectrometry at a counting efficiency of approximately 50%. IC50 values were determined by non-linear regression analyis.
as §1
Radioligand Binding. […] Briefly, membranes (P2 microsomal fraction) were diluted 1:3 with 50 mM Tris HCl (pH 7.4) and 0.4 mL was combined with 50 μL [^3 H]DTG (1-2 nM final concentration) and 50 μL of competing drug or buffer. After 90 min at room temperature, incubation was terminated by rapid filtration under vacuum through Whatman GF/B glass fiber filters using a Brandel 48-well cell harvester. Filters were washed three times with 5 mL of cold Tris HCl buffer and each filter was suspended in 5 mL of Cytoscint (ICN Biomedical). Radioactivity was measured by liquid scintillation spectrometry at a counting efficiency of 50%.

The next test deals with T2, sigma-1 binding site (Cavia porcellus, UniProt Q60492).
T2 construct: Guinea pig whole membrane preparations (P2 microsomal fraction); from tissue; host or cells: guinea pig membranes (P2 microsomal fraction), as described by Weber et al; brain inferred from the sister test b489
Put plainly: biochemical. Details: species or system guinea pig. The settings on record: SIGMA-1 KI vs. 3H-PENTAZOCINE MEAN. On the procedure:
[^3 H]DTG was purchased from DuPont/NEN.
The radioactivity on the filters was determined by scintillation spectrometry at an efficiency of about 50% using Cytoscint (ICN) scintillation fluid.

The mark [1] stands for this setting: Table 6, read-out: 5HT-1A (nM) MEAN.

T2 sequence (Q60492 whole entry): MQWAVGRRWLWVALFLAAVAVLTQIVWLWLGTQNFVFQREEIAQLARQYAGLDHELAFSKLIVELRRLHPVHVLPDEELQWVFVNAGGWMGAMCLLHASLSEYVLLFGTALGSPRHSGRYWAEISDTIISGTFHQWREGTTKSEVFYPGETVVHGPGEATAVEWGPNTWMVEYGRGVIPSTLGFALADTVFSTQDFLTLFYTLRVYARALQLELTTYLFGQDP

Consider `C[C@@H](Cc1ccccc1)N(C)CCc1ccccc1` [Compound 36], for which, on 5-HT1A receptor (Table 5), the “Ratio 5-HT1A /σ” value came out at 239. The IC50 on 5-HT1A receptor (Table 5, read-out: 5-HT1A IC50) stood at 1630 nM.
Turning to `COc1ccc(OC)c(CC(C)NCCCCc2ccccc2)c1` (centres unmarked) [Compound 65], the values for the IC50 at sigma receptor and on 5-HT1A receptor (setting [1]) were 72.9 nM and 182 nM, respectively.
For the compound `COc1cc(CC(C)NCCCCc2ccccc2)c(OC)cc1Br` (centres unmarked) [Compound 66], the IC50 at sigma receptor was determined as 45.1 nM; on 5-HT1A receptor (setting [1]) it was 272 nM.
With `c1ccc(CCCNC2CCCc3ccccc3C2)cc1` (centres unmarked) [Compound 67], the figures for the IC50 at sigma receptor and on 5-HT1A receptor (setting [1]) were 59.6 nM and 19.3 nM, respectively.
Taken in the same sequence, the figures for `C[C@@H](Cc1ccccc1)N(C)CCCc1ccc2ccccc2c1` [Compound 68] were 3.25 nM and 1320 nM.
Turning to `C[C@@H](Cc1ccccc1)N(C)CCCCCc1ccccc1` [Compound 69], the IC50 came out at 2.25 nM at sigma receptor and 891 nM on 5-HT1A receptor (setting [1]).
The like results for `c1ccc(CCCCNCCCc2ccccc2)cc1` [Compound 72] were, in that order, 7.23 nM and 11.3 nM.
Taken in the same sequence, the figures for `c1ccc(CCCCNCCCCc2ccccc2)cc1` [Compound 73] were 6.98 nM and 55.7 nM.
The like results for `Clc1ccc(N2CCN(CCCc3ccccc3)CC2)cc1` [Compound 78] were, in that order, 3.01 nM and 98.4 nM.
As to `c1ccc(CCCCN2CCC(c3ccccc3)CC2)cc1` [Compound 81], the figures for the IC50 on sigma receptor and on 5-HT1A receptor (setting [1]) were 0.88 nM and 43.9 nM, respectively.
As for `c1ccc(CCCCCN2CCC(c3ccccc3)CC2)cc1` [Compound 82], the IC50 at sigma receptor was 0.96 nM; on 5-HT1A receptor (setting [1]), 136 nM.
Regarding `CCCc1ccc(CC(C)NCCCc2ccccc2)cc1` (centres unmarked) [Compound 84], the IC50 is 6.43 nM on sigma receptor and 168 nM at 5-HT1A receptor (setting [1]).
The like results for `CC(Cc1ccc(OCc2ccccc2)cc1)NCCCc1ccccc1` (centres unmarked) [Compound 85] were, in that order, 28.1 nM and 1150 nM.
On to `CCCc1ccc(CC(C)N(C)CCCc2ccccc2)cc1` (centres unmarked) [Compound 86], for which the figures for the IC50 on sigma receptor and at 5-HT1A receptor (setting [1]) were 2.43 nM and 502 nM, respectively.
On to `c1ccc(CCCNCCCC2CCCCC2)cc1` [Compound 92, N-(3-Cyclohexylpropyl)-3-phenylpropylamine Hydrochloride], for which, on sigma receptor, the IC50 worked out at 2.99 nM and the Ki (usually the equilibrium dissociation constant of an inhibitor or competing ligand from its target) was 2.4 nM. The IC50 at 5-HT1A receptor (setting [1]) came to 26.3 nM.
On to `c1ccc(CCCCCNCC2CCCCC2)cc1` [Compound 93], for which the “change in sigma affinity, words” value with sigma receptor (Example 6) was “binds with twice the affinity”. The values for the IC50 on sigma receptor and at 5-HT1A receptor (setting [1]) were 1.4 nM and 597 nM, respectively. Also, the Ki at sigma receptor was found to be 1.2 nM.
As for `O=C1c2ccccc2C(=O)N1CCCCCN1CCN(c2ccccc2)CC1` [Compound 98], the IC50 on sigma receptor amounted to 6.18 nM; at 5-HT1A receptor (setting [1]), 2.23 nM.
`c1ccc(CCCCCCNCCCc2ccccc2)cc1` [Compound 110]: the figures for the IC50 at sigma receptor and on 5-HT1A receptor (setting [1]) were 3.62 nM and 117 nM, respectively.
The like results for `CC(C)=CCN(C)[C@@H](C)Cc1ccccc1` [Compound 114] were, in that order, 6.71 nM and 34000 nM.
`CC(C)CCN(C)[C@@H](C)Cc1ccccc1` [Compound 115]: the IC50 on sigma receptor stood at 3.04 nM; at 5-HT1A receptor (setting [1]) it was 20000 nM.
The like results for `OC1(Cc2ccccc2)CCN(CCCCCc2ccccc2)CC1` [Compound 118] were, in that order, 2.14 nM and 1970 nM.
Compound `CCN1CCC[C@H]1CNC(=O)c1c(OC)ccc(Br)c1OC` [Remoxipride, reference compound] returned a Ki at sigma-1 binding site of 312 nM.
The same measure, in the same setting: under `O=C(CCCN1CCC2(CC1)C(=O)NCN2c1ccccc1)c1ccc(F)cc1` [Spiperone, reference compound] stands 10000 nM.
